Assay results published in patent US7868163B2, “Adenyl dinucleotides with antitumour activity and a method of preparing thereof” (Universita' Degli Studi Di Genova, priority 2005, dated 2011).
Like-named read-outs stand apart in the source and are kept apart here.

How the values were obtained:
CD38^+ HeLa = experiment: MTT reduction proliferation assay, CD38+ HeLa; format: cell-based, human; details: 24 hours
Experimental: (§1) The effect of P18 and P24 on the proliferation of several cell lines was determined by the MTT reduction assay (Mosmann, T. (1983) J. Immunol. Methods 65, 55-63). […] After 24 hours, 10 μl of a 5 mg/ml solution of MTT were added to each well and the plates incubated for a further 2 hours. The supernatant was then removed from each well and the blue crystals produced by the reduction of the dye were dissolved in DMSO (200 μl/well). The optical absorbance at 570 nm was determined with a BioRad microplate reader.
(§2) In these experiments, cells were seeded onto 96 well plates (3×10^4 cells per well) and incubated in the presence of increasing concentrations of P18 or P24. After 24 hours, the percentage of viable cells was evaluated by spectrophotometric measurement of the concentration of reduced MTT (see Materials and Methods). The means of at least three separate experiments are shown (s.d.≦20% of the mean value). The production of P18 and P24 by human CD38 cyclase, with inhibitory effects on colony growth, together with cADPR, with stimulatory effect, may be at least partly responsible for the colony growth inhibition observed during long term culture of human HP cells on CD38^+ stroma. […]

HCT-8 = experiment: MTT reduction proliferation assay, HCT-8; format: cell-based, human; details: HCT-8 colon carcinoma, 24 hours
Experimental: as §1, §2

K562 = experiment: MTT reduction proliferation assay, K562; format: cell-based, human; details: K562 proerythroblastic leukemia, 24 hours
Experimental: The effect of P18 and P24 on the proliferation of several cell lines was determined by the MTT reduction assay (Mosmann, T. (1983) J. Immunol. Methods 65, 55-63). Briefly, cells were seeded at a concentration of 3×10^4/well in flat-bottomed 96-well plates and grown in complete medium in the presence of various concentrations (ranging between 20 and 0.4 μM) of purified dinucleotides. After 24 hours, 10 μl of a 5 mg/ml solution of MTT were added to each well and the plates incubated for a further 2 hours. The supernatant was then removed from each well and the blue crystals produced by the reduction of the dye were dissolved in DMSO (200 μl/well). The optical absorbance at 570 nm was determined with a BioRad microplate reader.
In these experiments, cells were seeded onto 96 well plates (3×10^4 cells per well) and incubated in the presence of increasing concentrations of P18 or P24. After 24 hours, the percentage of viable cells was evaluated by spectrophotometric measurement of the concentration of reduced MTT (see Materials and Methods). The means of at least three separate experiments are shown (s.d.≦20% of the mean value). […]

[1] = tested on: CFC (colony forming cells); experiment: CFC colony growth from cord blood mononuclear cells in semi-solid medium; format: cell-based, human; details: for IC50: read-out: IC50, inhibition of CFC colony growth; for reduction of toxicity by digestion with NPP and CIP: FIG. 4, CFC growth
Experimental: Mononuclear cells isolated from cord blood were incubated in the presence of various concentrations of P18 (▴), P24 (▪) and the iso-adenosine units resulting from the enzymatic digestion of P18 (Δ) and P24 (□). After 24 hours, aliquots of cells (1-2×10^4) were seeded in semi-solid medium to allow for colony growth. Results are expressed as percentage of inhibition of colony growth compared with controls, represented by cells incubated with the same dilution of chromatographic buffer as present in the HPLC-purified compounds. The IC50 values were obtained from the logarithmic regression curves (R≧0.97). The results shown in this figure are the mean from at least three different experiments.
Mononuclear cells were isolated from cord blood (CB MNC) by a density gradient, washed by centrifugation and resuspended in complete medium (Mosmann, T. (1983) J. Immunol. Methods 65, 55-63). Cells (10^6/ml) were incubated for 24 hours in complete medium in the presence of different dinucleotides at concentrations comprised between 20 and 0.4 μM. Then, aliquots of cells (1-2×10^4) were seeded in semi-solid medium, supplemented with haemopoietic growth factors (Methocult, Stem Cell Technologies, Vancouver, BC), in order to allow colonies to develop. After 2 weeks in culture, the colonies which were grown were microscopically identified according to standard criteria (CFU-E, CFU-GM and CFU-GEM) and counted: each colony identifies a colony forming cell (CFC).

HEP-G2 = experiment: MTT reduction proliferation assay, HEP-G2; format: cell-based, human; details: HEP-G2 hepatocarcinoma, 24 hours
Experimental: as §1, §2

CD38^+ HeLa cells = experiment: Intracellular calcium assay (FURA 2-AM), CD38+ HeLa; format: cell-based, human; details: 10 μM for 18 hours; for tapsigargine-induced release of calcium from ER stores [Ca^2+]i: 1 μM tapsigargine
Experimental: Adherent CD38^+ and CD38^− human HeLa cells on 20 mm-diameter coverslips were incubated in complete medium in the presence of […] P18 or P24 for […]. The cells were then washed, incubated with 6 μM Fura 2-acetoxymethyl ester (FURA 2-AM) in standard saline (135 mM NaCl, 5.4 mM KCl, 1.8 mM CaCl2, 1 mM MgCl2, 5 mM Hepes, 10 mM glucose, pH 7.4) for 45 minutes at 37° C. and then washed several times with saline. Calcium measurements were performed in a 200-μl chamber mounted on an inverted microscope, as described in detail in Zocchi E., et al. (1998) J. Biol. Chem. 273, 8017-8024. After determination of basal [Ca^2+]i levels, 1 μM tapsigargine was added to induce the release of calcium from tapsigargine-sensitive stores ([…]). The parameter values needed for calibration were obtained at the end of the experimental measurements, as described in Zocchi E., et al. (1998) J. Biol. Chem. 273, 8017-8024.
Basal cytosolic calcium and tapsigargine-induced release of calcium from […] (ER) stores (in bold in Table 4) were measured in CD38^+ and CD38^− HeLa cells loaded with FURA 2-AM and incubated in the absence (control) or in the presence of P18 or P24 at a concentration of 10 μM for 18 hours. The results obtained, expressed as [Ca^2+]I nanomolarity, are summarised in Table 4, showing mean results from 8 separate experiments (s.d.≦15% of the mean value).

CD38^− cells = experiment: Uptake of extracellularly added dinucleotides in CD38- cells; format: in vitro ADME, human; details: 15 μM added extracellularly
[2] = 24 hours incubation of cord blood mononuclear cells, colonies counted after 2 weeks

| Compound | IC50 (CD38^+ HeLa) [µM] | IC50 (HCT-8) [µM] | IC50 (K562) [µM] | IC50 ([1]; 2 hours of incubation) [µM] | IC50 [1, 2] [µM] | reduction of toxicity by digestion with NPP and CIP [1] [fold] | IC50 (HEP-G2) [µM] | ER stores-calcium, % of the control (CD38^+ HeLa cells) [%] | basal [Ca^2+]i, % of the control (CD38^+ HeLa cells) [%] | basal cytosolic free calcium [Ca^2+]i (CD38^+ HeLa cells) [nM] | tapsigargine-induced release of calcium from ER stores [Ca^2+]i (CD38^+ HeLa cells) [nM] | rate of increase of intracellular concentration (uptake) (CD38^− cells) |
| --- | --- | --- | --- | --- | --- | --- | --- | --- | --- | --- | --- | --- |
| Nc1ncnc2c1ncn2[C@@H]1O[C@H](COP(=O)(O)OP(=O)(O)OC[C@H]2O[C@@H](n3cnc4ncnc-4c3N)[C@H](O)[C@@H]2O)[C@@H](O)[C@H]1O [P18] | 120 | 65 | 44 | 30 | 1 | 40 | 78 | 48 | 41 | 16 | 123 | approx. 2.4 pmol/min/mg |
| Nc1ncn([C@@H]2O[C@H](COP(=O)(O)OP(=O)(O)OC[C@H]3O[C@@H](n4cnc5c(N)ncnc54)[C@H](O)[C@@H]3O)[C@@H](O)[C@H]2O)c2ncnc1-2 [P24] | 9.1 | 27 | 5.8 | – | 0.18 | 30 | 18.2 | 80 | 154 | 57 | 203 | approx. 2.4 pmol/min/mg |
